From paper PMC10648406, “Pulicaria incisa (Lam.) DC. as a Potential Source of Antioxidant, Antibacterial, and Anti-Enzymatic Bioactive Molecules: Phytochemical Constituents, In Vitro and In Silico Pharmacological Analysis” (Molecules, 2023)
In brackets after ≈: the same amount, converted by molar mass.

Assays:
[1] = system: P. aeruginosa; experiment: MIC, resazurin microtitre method; format: cell-based; conditions: Pseudomonas aeruginosa, 24 h, 37 °C, read-out: Minimal inhibitory concentration
Protocol: (§1) To ensure sterility, the extracts and DMSO underwent ultrafiltration before their use in the study. The minimum inhibitory concentration (MIC) of both aqueous and methanolic extracts was determined using a modified version of the resazurin method developed by Sarker and Nahar. A resazurin solution was prepared by dissolving 270 mg of resazurin in 40 mL of sterilized deionized water. In 96-well microtiter plates, the first row received 100 μL of samples in DMSO (1:10 v/v), while all other wells received 50 μL of Luria–Bertani broth or normal sterile solution. Serial dilutions of the extracts were performed in descending concentrations. To each well, 10 μL of the resazurin indicator solution was added. […] The plates were sealed with parafilm to prevent dehydration. A column of the plate contained the broad-spectrum antibiotic tetracycline, which was previously suspended in DMSO and served as a positive control. The negative control consisted of Luria–Bertani broth containing resazurin and bacteria without any samples. The plates were incubated at 37 °C (35 °C for A. baumannii) for 24 h. Visual observation was used to assess any color changes. If the solution changed from dark purple to pink or colorless, it was recorded as a positive result. The MIC value was determined as the lowest concentration of extracts that could prevent the color change from dark purple to pink.

[2] = system: L. monocytogenes; experiment: MIC, resazurin microtitre method; format: cell-based; conditions: Listeria monocytogenes, 24 h, 37 °C, read-out: Minimal inhibitory concentration
Protocol: as §1

[3] = system: A. baumannii; experiment: MIC, resazurin microtitre method; format: cell-based; conditions: Acinetobacter baumannii, 24 h, 35 °C, read-out: Minimal inhibitory concentration
Protocol: as §1

[4] = system: E. coli; experiment: MIC, resazurin microtitre method; format: cell-based; conditions: Escherichia coli, 24 h, read-out: Minimal inhibitory concentration
Protocol: as §1

[5] = system: S. aureus; experiment: MIC, resazurin microtitre method; format: cell-based; conditions: Staphylococcus aureus, 24 h, read-out: Minimal inhibitory concentration
Protocol: as §1

[6] = DPPH assay; conditions: 45 min, 515 nm
Protocol: The antiradical activity of the stable 1,1-diphenyl-2-picrylhydrazyl radical (DPPH) was measured using the protocol of Xiang and coworkers with slight modifications. […] To produce final concentrations ranging from 31.25 to 1000 µg/mL, aliquots of extracts were dissolved in methanol. In a straight-sided cuvette, an aliquot of methanol solution containing different concentrations of either methanolic or aqueous extracts was added to a DPPH solution (60 μM) to a final volume of 1 mL. As a control, an identical quantity of DPPH solution was applied to the cuvette, and methanol alone was used as the blank. After 45 min, the absorbance at 515 nm was measured with a Multiskan GO spectrophotometer (Thermo Fisher Scientific, Vantaa, Finland).
The standard was 6-hydroxy 2,5,7,8-tetramethylchroman-2-carboxylic acid (Trolox, Sigma-Aldrich, Milan, Italy).

| DPPH (IC50) [6] [µg/mL] | Structure (SMILES) | MIC [1] [µg/mL] | MIC [2] [µg/mL] | MIC [3] [µg/mL] | MIC [4] [µg/mL] | MIC [5] [µg/mL] |
| --- | --- | --- | --- | --- | --- | --- |
| – | CN(C)[C@@H]1C(O)=C(C(N)=O)C(=O)[C@@]2(O)C(O)=C3C(=O)c4c(O)cccc4[C@@](C)(O)[C@H]3C[C@@H]12 [Tetracycline] | 28 ± 1 (≈ 63 µM) | 32 ± 1 (≈ 72 µM) | 25 ± 2 (≈ 56.3 µM) | 25 ± 2 (≈ 56.3 µM) | 28 ± 1 (≈ 63 µM) |
| 3.65 ± 0.01 | Cc1c(C)c2c(c(C)c1O)CCC(C)(C(=O)O)O2 (stereo not drawn) [Trolox, 6-hydroxy 2,5,7,8-tetramethylchroman-2-carboxylic acid] | – | – | – | – | – |
